Patent publication US20260008862A1, “Bispecific Anti-BCMA x Anti-CD3 Antibodies and Uses Thereof” (Regeneron Pharmaceuticals, Inc., priority 2018, published 2026)

Tests used:
[1] = tested on: Jurkat/NFATLuc.3C7 cells + RPMI-8226 cells; test: Jurkat/NFATLuc reporter bioassay with RPMI-8226 cells; assay type: cell-based; conditions: highest RLU / lowest RLU
Method: Activity of the anti-BCMA×anti-CD3 bispecific antibodies were assessed in a Jurkat/NFATLuc reporter bioassay utilizing several cell lines with varying levels of BCMA surface expression. The Jurkat cells were engineered to express an NFAT-luciferase reporter (Jurkat/NFATLuc.3C7), and 50,000 Jurkat reporter cells were combined with 50,000 BCMA positive (Daudi, MM1-S, NCI-H929, OPM-2, RPMI-8226, MOLP-8, or Raji) or BCMA negative (HEK293) cells in Thermo Nunclon delta 96 well white microwell plates (Thermo Scientific, Cat #136102) in 50 ul of assay media (RPMI media with 10% FBS and 1% P/S/G). Three-fold serial dilutions of the BCMA×CD3 bispecific antibodies (mAb25441 D or mAb25442D), or a bivalent anti-BCMA antibody (mAb21581) were immediately added in 50 μL of assay buffer. The plates were gently agitated and incubated in a 37° C., 5% CO2 incubator for 4-6 hours. NFAT-Luciferase activity was determined using Promega One-Glo (Cat #E6130) and a Perkin Elmer Envision plate reader. RLU were plotted in GraphPad Prism using a four-parameter logistic equation over a 12-point response curve to calculate EC50 values. […] The signal to noise (S:N) is determined by taking the ratio of the highest RLU on the curve to the lowest.

[2] = tested on: BCMA-expressing MOLP-8 tumors; test: MOLP-8 + PBMC subcutaneous xenogenic tumor model, dose response (Example 13); assay type: in vivo, mouse
Method: To determine the in vivo efficacy of anti-BCMA×anti-CD3 bispecific antibodies (Abs), a xenogenic tumor study was performed. Immunodeficient NOD.Cg-Prkdc^scidIl2rg^tm1Wji/SzJ (NSG) mice were subcutaneously implanted with a mixture of 5×10^6 BCMA-expressing MOLP-8 human multiple myeloma tumor cells and 1×10^6 human peripheral blood mononuclear cells (PBMC) isolated from a normal, healthy donor. […] The mice were administered these Abs twice per week for a total of seven doses, and tumor growth was assessed over 56 days. While the BCMA^+ MOLP-8 tumors grew similarly in the vehicle- and CD3-binding control-treated mice, both BCMA×CD3 Abs that were tested prevented the growth of tumors in a dose-dependent manner in vivo.
Implantation and measurement of xenogenic tumors: NSG mice were subcutaneously implanted with a mixture of 5×10^6 BCMA-expressing MOLP-8 multiple myeloma cells and 1×10^6 PBMC derived from a normal, healthy donor. […] The mice were administered Abs twice per week for a total of seven doses. Tumor growth was measured by caliper twice per week for the duration of the experiment.
Calculation of xenogenic tumor growth and inhibition: In order to determine tumor volume by external caliper, the greatest longitudinal diameter (length in mm) and the greatest transverse diameter (width in mm) were determined. Tumor volumes based on caliper measurements were calculated by the formula: Volume (mm^3)=(length×width^2)/2.

[3] = tested on: BCMA+ OPM-2-luciferase tumors; test: OPM-2-luciferase intravenous xenogenic tumor model, BLI (Example 15); assay type: in vivo, mouse
Method: (§1) To determine the in vivo efficacy of anti-BCMA×anti-CD3 bispecific antibodies (Abs), a xenogenic tumor study was performed. On day 0, immunodeficient NOD.Cg-Prkdc^scidIl2rg^tm1Wji/SzJ (NSG) mice were intravenously administered 2×10^6 BCMA^+ OPM-2 human multiple myeloma tumor cells that were engineered to also express firefly luciferase (OPM-2-luciferase cells). On day 10, the mice were intraperitoneally injected with 4×10^6 human peripheral blood mononuclear cells (PBMC) from a normal, healthy donor. […] The mice were administered these Abs twice more on days 25 and 28, for a total of three doses. Tumor growth was assessed through day 61 by measuring tumor bioluminescence (BLI) in anesthetized animals. As a positive control, a group of mice (n=5) was given only OPM-2-luciferase cells, but not PBMC or antibody.
as §1, with “Implantation and measurement” for “To determine the in vivo efficacy”, “of” for “of anti-BCMA×anti-CD3 bispecific antibodies (Abs), a”, “tumors:” for “tumor study was performed.”
Measurement of xenogenic tumor growth: BLI imaging was used to measure tumor burden. Mice were injected IP with 150 mg/kg of the luciferase substrate D-luciferin suspended in PBS. Five minutes after this injection, BLI imaging of the mice was performed under isoflurane anesthesia using the Xenogen IVIS system. Image acquisition was carried out with the field of view at D, subject height of 1.5 cm, and medium binning level with automatic exposure time determined by the Living Image Software. BLI signals were extracted using Living Image software: regions of interest were drawn around each tumor mass and photon intensities were recorded as p/s/cm2/sr.

Substance: REGN5459: anti-BCMA×anti-CD3 bispecific antibody: BCMA HCVR of mAb21581 (SEQ 66), CD3 HCVR of mAb7221G20 (SEQ 98), common LCVR SEQ 82
- S:N [1]: 42
- Average Tumor Size (mm3) ± SEM on Day 3 ([2]; 0.04 mg/kg): 11.7 ± 2.1 mm3
- Average Tumor Size (mm3) ± SEM on Day 7 ([2]; 0.04 mg/kg): 37.0 ± 5.7 mm3
- Average Tumor Size (mm3) ± SEM on Day 10 ([2]; 0.04 mg/kg): 104 ± 23.0 mm3
- Average Tumor Size (mm3) ± SEM on Day 14 ([2]; 0.04 mg/kg): 356.7 ± 84.6 mm3
- Average Tumor Size (mm3) ± SEM on Day 17 ([2]; 0.04 mg/kg): 645.6 ± 140.9 mm3
- Average Tumor Size (mm3) ± SEM on Day 21 ([2]; 0.04 mg/kg): 1442.4 ± 310.7 mm3
- Average Tumor Size (mm3) ± SEM on Day 23 ([2]; 0.04 mg/kg): 2124.4 ± 444.1 mm3
- Average Tumor Size (mm3) ± SEM on Day 28 ([2]; 0.04 mg/kg): 1939.3 ± 840.6 mm3
- Average Tumor Size (mm3) ± SEM on Day 31 ([2]; 0.04 mg/kg): 2688.7 ± 1176.6 mm3
- Average Tumor Size (mm3) ± SEM on Day 35 ([2]; 0.04 mg/kg): 612.1 ± 0 mm3
- Average Tumor Size (mm3) ± SEM on Day 3 ([2]; 0.4 mg/kg): 14.0 ± 1.6 mm3
- Average Tumor Size (mm3) ± SEM on Day 7 ([2]; 0.4 mg/kg): 0 ± 0 mm3
- Average Tumor Size (mm3) ± SEM on Day 10 ([2]; 0.4 mg/kg): 0 ± 0 mm3
- Average Tumor Size (mm3) ± SEM on Day 14 ([2]; 0.4 mg/kg): 0 ± 0 mm3
- Average Tumor Size (mm3) ± SEM on Day 17 ([2]; 0.4 mg/kg): 0 ± 0 mm3
- Average Tumor Size (mm3) ± SEM on Day 21 ([2]; 0.4 mg/kg): 0 ± 0 mm3
- Average Tumor Size (mm3) ± SEM on Day 23 ([2]; 0.4 mg/kg): 0 ± 0 mm3
- Average Tumor Size (mm3) ± SEM on Day 28 ([2]; 0.4 mg/kg): 0 ± 0 mm3
- Average Tumor Size (mm3) ± SEM on Day 31 ([2]; 0.4 mg/kg): 0 ± 0 mm3
- Average Tumor Size (mm3) ± SEM on Day 35 ([2]; 0.4 mg/kg): 0 ± 0 mm3
- Average Tumor Size (mm3) ± SEM on Day 42 ([2]; 0.4 mg/kg): 0 ± 0 mm3
- Average Tumor Size (mm3) ± SEM on Day 56 ([2]; 0.4 mg/kg): 0 ± 0 mm3
- Average Tumor Size (mm3) ± SEM on Day 3 ([2]; 4 mg/kg): 12.9 ± 1.3 mm3
- Average Tumor Size (mm3) ± SEM on Day 7 ([2]; 4 mg/kg): 0.6 ± 0.6 mm3
- Average Tumor Size (mm3) ± SEM on Day 10 ([2]; 4 mg/kg): 0 ± 0 mm3
- Average Tumor Size (mm3) ± SEM on Day 14 ([2]; 4 mg/kg): 0 ± 0 mm3
- Average Tumor Size (mm3) ± SEM on Day 17 ([2]; 4 mg/kg): 0 ± 0 mm3
- Average Tumor Size (mm3) ± SEM on Day 21 ([2]; 4 mg/kg): 0 ± 0 mm3
- Average Tumor Size (mm3) ± SEM on Day 23 ([2]; 4 mg/kg): 0 ± 0 mm3
- Average Tumor Size (mm3) ± SEM on Day 28 ([2]; 4 mg/kg): 1.9 ± 1.9 mm3
- Average Tumor Size (mm3) ± SEM on Day 31 ([2]; 4 mg/kg): 3.8 ± 3.0 mm3
- Average Tumor Size (mm3) ± SEM on Day 35 ([2]; 4 mg/kg): 9.3 ± 7.5 mm3
- Average Tumor Size (mm3) ± SEM on Day 42 ([2]; 4 mg/kg): 12.8 ± 12.8 mm3
- Average Tumor Size (mm3) ± SEM on Day 56 ([2]; 4 mg/kg): 17.2 ± 17.2 mm3
- Radiance [p/s/cm2^2/sr] 5 days post-implantation (mean ± SEM) ([3]; 0.4 mg/kg group, 5 days post-implantation (before first dose on day 21)): 5.09E+05 ± 3.56E+04 p/s/cm2^2/sr
- Radiance [p/s/cm2^2/sr] 11 days post-implantation (mean ± SEM) ([3]; 0.4 mg/kg group, 11 days post-implantation (before first dose on day 21)): 6.45E+05 ± 2.39E+04 p/s/cm2^2/sr
- Radiance [p/s/cm2^2/sr] 20 days post-implantation (mean ± SEM) ([3]; 0.4 mg/kg group, 20 days post-implantation (before first dose on day 21)): 2.13E+06 ± 1.69E+05 p/s/cm2^2/sr
- tumor burden (in words) ([3]; 0.4 mg/kg on days 21, 25 and 28): reduced tumor burdens to background levels in the majority of animals
- Radiance [p/s/cm2^2/sr] 26 days post-implantation (mean ± SEM) ([3]; 0.4 mg/kg, 26 days post-implantation): 1.28E+06 ± 7.36E+05 p/s/cm2^2/sr
- Radiance [p/s/cm2^2/sr] 31 days post-implantation (mean ± SEM) ([3]; 0.4 mg/kg, 31 days post-implantation): 1.98E+06 ± 1.36E+06 p/s/cm2^2/sr
- Radiance [p/s/cm2^2/sr] 34 days post-implantation (mean ± SEM) ([3]; 0.4 mg/kg, 34 days post-implantation): 4.24E+06 ± 3.69E+06 p/s/cm2^2/sr
- Radiance [p/s/cm2^2/sr] 38 days post-implantation (mean ± SEM) ([3]; 0.4 mg/kg, 38 days post-implantation): 3.21E+06 ± 2.52E+06 p/s/cm2^2/sr
- Radiance [p/s/cm2^2/sr] 40 days post-implantation (mean ± SEM) ([3]; 0.4 mg/kg, 40 days post-implantation): 3.84E+06 ± 3.34E+06 p/s/cm2^2/sr
- Radiance [p/s/cm2^2/sr] 47 days post-implantation (mean ± SEM) ([3]; 0.4 mg/kg, 47 days post-implantation): 7.34E+05 ± 2.62E+04 p/s/cm2^2/sr
- Radiance [p/s/cm2^2/sr] 54 days post-implantation (mean ± SEM) ([3]; 0.4 mg/kg, 54 days post-implantation): 6.41E+05 ± 5.96E+04 p/s/cm2^2/sr
- Radiance [p/s/cm2^2/sr] 61 days post-implantation (mean ± SEM) ([3]; 0.4 mg/kg, 61 days post-implantation): 6.03E+05 ± 5.29E+04 p/s/cm2^2/sr
